The values below are quoted from earlier work in publication PMC11599114 (Viruses, 2024).

For orientation: IC50 means the concentration at which inhibition is half-maximal. In general, IC90 refers to the concentration needed for an effect of 90%. As a reminder, the EC50 is the concentration giving half of the maximal effect. The term inhibition denotes the share of the control response that was lost under treatment.

Read-outs that look alike come from different tables or passages of the source. Some results are limits rather than exact numbers.

For data set [1], the system named is SARS-CoV-2. More on the design: method as in 3 sources. As to conditions: SARS-CoV-2 infection, Vero E6.
Data set [2] deals with HSV-2. As to conditions: HSV-2, Vero.
Data set [3] concerns HCoV-229E. The following applies: Vero.
The subject of data set [4] is HSV-1. As to conditions: HSV-1, Vero.
Data set [5] has as its system HCoV-OC43. The following applies: HCoV-OC43, Vero.
Data set [6] deals with HPIV-3. The following applies: HPIV-3, Vero.
For data set [7], the system named is SARS-CoV-2. The following applies: SARS-CoV-2, Vero.
In data set [8] the test system is SARS-CoV.
Data set [9] concerns A/Roma-ISS/02/08 H1N1. As to conditions: A/Roma-ISS/02/08 H1N1, MDCK.
Data set [10] has as its system influenza A virus(H3N2). Details: method as in 2 sources.
In data set [11] the test system is influenza A virus(H1N1). More on the design: method as in 2 sources.
In data set [12] the test system is SARS coronavirus.
The subject of data set [13] is HSV. More on the design: method as in ref 35663971. The following applies: Huh7, at 10 μM.
The subject of data set [14] is Dengue virus 2(DENV2). Details: method as in ref 35663971. The following applies: DENV2, Huh7, at 10 μM.
For data set [15], the system named is SARS-CoV-2. Details: method as in ref 35663971. As to conditions: SARS-CoV-2, Huh7, at 10 μM.
For data set [16], the system named is SARS-CoV. As to conditions: 100 µM.
Data set [17] relates to influenza B virus. More on the design: method as in ref 35259078. As to conditions: FluB, MDCK.
Data set [18] concerns SARS-CoV-2(Delta). More on the design: method as in ref 35259078. The following applies: Vero E6.
Data set [19] has as its system SARS-CoV-2 (HKU001a). Details: method as in ref 35259078. As to conditions: Vero E6.
For data set [20], the system named is human parainfluenza virus 3 (HPIV3). More on the design: method as in ref 16973588. The following applies: HPIV3 fusion, HeLa.
Data set [21] concerns Hendra virus(HeV).
The test system of data set [22] is Hendra virus(HeV). This is another data set of the same source.
Data set [23] relates to human parainfluenza virus 3 (HPIV3). Details: method as in ref 16973588. As to conditions: HPIV3 infection, HeLa.
Data set [24] concerns SARS-CoV-2. More on the design: method as in 3 sources. The following applies: SARS-CoV-2 S-mediated fusion.
For data set [25], the system named is MERS-CoV.
Data set [26] relates to HCoV-NL63.
Data set [27] has as its system SARS-CoV-2. Details: method as in 3 sources. The following applies: SARS-CoV-2 PsV, Huh-7.
The test system of data set [28] is SARS-CoV. This is another data set of the same source.
Data set [29] concerns HCoV-229E.
Data set [30] relates to A/Parma0/5/06 H3N2. The following applies: A/Parma0/5/06 H3N2, MDCK.

For “DEDLEELERLYRKAEEVAKEAKDASRRGDDERAKEQMERAMRLFDQVFELAQELQEKQTDGNRQKATHLDKAVKEAADELYQRVR [DRAVPe00480]”, in data set [1], the IC50 was 0.035 µM.
For the substance “ELEEQVMHVLDQVSELAHELLHKLTGEELERAAYFNWWATEMMLELIKSDDEREIREIEEEARRILEHLEELARK [DRAVPe00481]”, in data set [1], the IC50 is 0.0155 µM.
As to FVPWFSKFlKRIL [DRAVPe00383], the IC90 was 7.99 µM in data set [2]; 50 µM in [3]; 10.5 µM in data set [4]; 16.3 µM in data set [5]; > 50 µM in data set [6]; 12.9 µM in [7].
Consider FVPWFSKFlkRIL [DRAVPe00384], for which the IC90 was 12.5 µM in [2]; 50 µM in data set [3]; 12.7 µM in [4]; 29.2 µM in [5]; > 50 µM in data set [6]; 25.3 µM in data set [7].
For GYFVQDDGEWKFTGSSYYY [DRAVPe01421], the IC50 in data set [8] is 4 µM.
As to KANEGLTWNSLKDK [DRAVPe01644], the EC50 in data set [9] is 0.001 ± 0.00015 µM.
Consider KFFRKKSVKK [DRAVPe01822], for which the EC50 in [10] (H3N2, MDCK) is 7.36 ± 1.2 µM; in data set [11] (H1N1, MDCK) it was 5.2 ± 0.9 µM.
On to KKKKYRNIRRPG [AVP1641], for which the Activity in data set [12] is 45 µg/mL.
MGRFKRFRKKFKKLFKKLS [DRAVPe01948]: the inhibition in [13] is 50%; in [14], 50%; in [15], 80%.
NHEAEDLFY [DRAVPe01629]: the inhibition in data set [16] is 30%.
With RGAHIKGRWKSRCHRF [DRAVPe01802], the IC50 in data set [17] was 7.1 µg/mL; in [10] (A(H3N2), MDCK) it was 1.6 µg/mL; in [18], 3.9 µg/mL; in data set [19], 2.9 µg/mL; in [11] (A(H1N1), MDCK) it was 3.9 µg/mL.
Regarding “SIELNKAKSDLEESKEWIRRSNQKLDSI [DRAVPe01316]”, the IC50 in [20] was > 10 µM; in [21], > 1 µM; in data set [22], > 10 µM; in [23], > 10 µM.
Regarding “SLDYINVTFLDLQDEMNRLQEAIKVLNQSYINLKDI [DRAVPe00419]”, the IC50 in data set [24] was 0.0041 ± 0.001 µM; in [25], 0.0052 µM; in data set [26], 0.416 ± 0.228 µM; in [27], 0.0828 ± 0.0221 µM; in [28], 0.25 µM; in data set [29], 2.01 ± 0.698 µM.
Turning to TNGESTADWAKN [DRAVPe01645], the EC50 in data set [9] is 0.4 ± 2e-05 µM; in data set [30], 0.01 µM.
Regarding “VALDPIDISIELNKAKSDLEESKEWIRR [DRAVPe01315]”, the IC50 is > 10 µM in data set [20], > 1 µM in data set [21], > 10 µM in [22] and > 10 µM in [23].
For the substance “VANDPIDISIELNKAKSDLEESKEWIRRSNQKLDSD [DRAVPe01314]”, the half-inhibitory concentration (IC50) in [20] is 0.75 µM; in data set [21] it was > 1 µM; in data set [22], > 10 µM; in data set [23] it was 1.1 µM.
